Measured values: publication PMC10202292, “The exquisite specificity of human protein arginine methyltransferase 7 (PRMT7) toward Arg-X-Arg sites” (PLOS ONE, 2023)
Read-outs that look alike come from different tables or passages of the source.

What was measured:
GST-HsPRMT7 [1] = target: T1, GST-HsPRMT7 (Homo sapiens, UniProt Q9NVM4); assay: P81 phosphocellulose filter paper methylation assay with peptide substrates (cpm, end point and time course); assay type: biochemical; settings: 10 μM peptide
T1 construct: full-length human PRMT7 (residues 1–692); 34693; host or cells: E. coli BL21 DE3
T1 sequence (Q9NVM4 1-692): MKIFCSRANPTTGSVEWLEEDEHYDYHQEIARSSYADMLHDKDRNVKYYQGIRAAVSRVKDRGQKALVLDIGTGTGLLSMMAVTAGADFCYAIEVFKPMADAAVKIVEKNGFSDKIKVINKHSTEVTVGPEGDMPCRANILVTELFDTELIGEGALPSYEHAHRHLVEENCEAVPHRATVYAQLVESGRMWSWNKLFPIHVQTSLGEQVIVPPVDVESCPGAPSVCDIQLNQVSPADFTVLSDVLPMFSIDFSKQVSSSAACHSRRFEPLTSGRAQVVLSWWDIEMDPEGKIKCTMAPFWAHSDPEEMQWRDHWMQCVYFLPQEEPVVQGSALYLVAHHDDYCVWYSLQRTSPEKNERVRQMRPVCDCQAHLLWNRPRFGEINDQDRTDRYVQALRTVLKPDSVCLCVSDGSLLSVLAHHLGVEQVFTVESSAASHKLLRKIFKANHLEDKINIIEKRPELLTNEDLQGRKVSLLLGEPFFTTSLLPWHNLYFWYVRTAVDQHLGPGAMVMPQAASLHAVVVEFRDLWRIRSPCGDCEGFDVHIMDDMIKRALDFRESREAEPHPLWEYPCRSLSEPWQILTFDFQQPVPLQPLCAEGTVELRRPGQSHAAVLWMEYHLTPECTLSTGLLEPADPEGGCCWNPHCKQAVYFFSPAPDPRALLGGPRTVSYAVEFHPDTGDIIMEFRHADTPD
Description: (§1) In vitro methylation assays were performed with GST-HsPRMT7, the indicated substrate protein or peptide, and 1.4 μM S-adenosyl-L-[methyl-^3H]methionine ([^3H]-AdoMet; PerkinElmer cat no. NET155V), prepared from diluting a stock of 7.0 μM [^3H]-AdoMet (81.9 Ci/mmol, 1 mCi/mL in 9:1 10 mM H2SO4:EtOH, v/v) in 10 mM HCl. All reactions were performed using distilled water buffered with 50 mM potassium HEPES, pH 9.5 and 1 mM DTT, reaching a final reaction volume of 30 μL. The reactions were initiated by adding [^3H]-AdoMet to a final concentration of 0.14 μM. Control reactions (enzyme-only, substrate-only) contained distilled water instead of substrate or GST-HsPRMT7, respectively. After initiation with [^3H]-AdoMet, all reactions analyzed via P81 phosphocellulose filter paper assay were incubated in a water bath at 25°C unless otherwise indicated for the specified time periods and were terminated with 0.5 μL 100% (w/v) trifluoroacetic acid (TFA). P81 assays performed at t = 0 were individually terminated immediately following initiation. Samples analyzed via SDS-PAGE were incubated at 4°C for 24 hours and were quenched by adding 5x SDS sample loading buffer (250 mM Tris-HCl, pH 6.8; 10% SDS, 30% glycerol, 10% β-mercaptoethanol, 0.2% bromophenol blue), followed by heating at 97°C for 3 min.
(§2) In vitro methylation assays with GST-HsPRMT7, selected methyl-accepting substrates, and [^3H]-AdoMet were set up as described previously and performed in triplicate. Following incubation at 25°C unless otherwise indicated for the time periods specified, all samples were quenched with 0.5 μL 100% TFA and centrifuged at 9,300 g for 10 seconds in an Eppendorf centrifuge (Model 5417C). 1 cm^2 pieces of P81 phosphocellulose filter paper (LabAlley catalog no. 05-717-2A) were spotted with 25 μL from each reaction mixture and set to dry overnight. The following day, all filter paper pieces were washed three times with 50 mM sodium bicarbonate solution, pH 9.0, and dried again in liquid scintillation vials. After 5 mL of Safety Solve fluor (RPI industries) was added to each vial, [^3H] radioactivity in each sample was quantified via liquid scintillation counter (Beckman LS6500) for four total cycles at 5 minutes per sample. All data presented are expressed as averages of the cpm from cycles 2–4.
(§3) Statistical analyses were performed using the “Analyze Data” function on GraphPad Prism v.8.0.1. To determine statistical significance, unpaired homoscedastic two-tailed Student’s t tests were performed with significance level α = 0.05 with the relevant data. To obtain apparent km and Vmax values, kinetic data were analyzed by non-linear regression using the Michaelis-Menten equation.

GST-HsPRMT7 [2] = target: T1, GST-HsPRMT7; assay: Michaelis-Menten kinetics of peptide substrate methylation (P81 phosphocellulose paper assay); assay type: biochemical; set-up: key to Vmax, Michaelis-Menten best-fit value, Fig7 / Vmax, Michaelis-Menten best-fit value, Fig8: Vmax expressed as cpm (averages of cycles 2–4)
Description: as §1, §2, §3

human PRMT7 = settings: addition of 50 mM NaCl or KCl; cited from earlier work
Description: Comparatively, a previous study of ionic strength in human HEK293 cells estimates the intracellular concentration of potassium ions to be about 120–140 mM in human cells. As such, our results in Fig 7 led us to question whether this dramatic decrease in activity may be associated with a loss of either substrate-enzyme binding affinity or catalytic activity. || We confirm that human PRMT7 activity is quite sensitive to changes in the RXR target sequence in the substrate protein. […] The exquisite specificity of PRMT7 toward the basic RXR motif can be contrasted to the much broader speci ...

PRMT9 = settings: methylation of SF3B2 at Arg508 (505-CFKRKYL-511); cited from earlier work
From the text: We confirm that human PRMT7 activity is quite sensitive to changes in the RXR target sequence in the substrate protein. […] The exquisite specificity of PRMT7 toward the basic RXR motif can be contrasted to the much broader speci ...

Molecule	methylation activity (GST-HsPRMT7 [1]; 5 μg GST-HsPRMT7, 0.14 μM [3H]-AdoMet, 25°C, 1 hour (Fig 4), approximate)	methylation activity (maximum value) (GST-HsPRMT7 [1]; 5 μg GST-HsPRMT7, 0.14 μM [3H]-AdoMet, 25°C, t = 120 min (Fig 6), approximate)	methylation activity (maximum) (GST-HsPRMT7 [1]; 5 μg GST-HsPRMT7, 0.14 μM [3H]-AdoMet, 25°C, t = 3 hours (Fig 4), approximate)	GST-HsPRMT7 methylation activity (GST-HsPRMT7 [1]; 5 μg GST-HsPRMT7, 0.14 μM [3H]-AdoMet, 40 min, 25°C (Fig 3), in words)	PRMT7 methylation activity (GST-HsPRMT7 [1]; 5 μg GST-HsPRMT7, 0.14 μM [3H]-AdoMet, 20 h, 4°C (Fig 5), in words)	Mean of GST-HsPRMT7 + peptide, Fig3 (GST-HsPRMT7 [1]; mean of n = 3, 40 min, 25°C)	Difference between means ± SEM vs peptide only, Fig3 (GST-HsPRMT7 [1]; n = 3, 40 min, 25°C, SEM)	Km (GST-HsPRMT7 [2]; + 130 mM KCl, 5 μg GST-HsPRMT7, 0.14 μM [3H]-AdoMet, 60 min, 25°C, GraphPad Prism fit, read-out: Km, Michaelis-Menten best-fit value, Fig8)	Km (GST-HsPRMT7 [2]; +130 mM KCl, apparent km, 5 μg GST-HsPRMT7, various peptide concentrations, 0.14 μM [3H]-AdoMet, 60 min, 25°C, pH 9.5, Michaelis-Menten fit, triplicates (Fig 8), read-out: km)	Km (GST-HsPRMT7 [2]; no added salt, apparent km of peptide substrate, 5 μg GST-HsPRMT7, various peptide concentrations, 0.14 μM [3H]-AdoMet, 60 min, 25°C, pH 9.5, Michaelis-Menten fit, triplicates (Fig 8), read-out: km)	Vmax, Michaelis-Menten best-fit value, Fig8 (GST-HsPRMT7 [2]; no salt, 5 μg GST-HsPRMT7, 0.14 μM [3H]-AdoMet, 60 min, 25°C, GraphPad Prism fit)	Km (GST-HsPRMT7 [2]; no salt, 5 μg GST-HsPRMT7, 0.14 μM [3H]-AdoMet, 60 min, 25°C, GraphPad Prism fit, read-out: Km, Michaelis-Menten best-fit value, Fig8)	increase of apparent km on adding 130 mM KCl (GST-HsPRMT7 [2]; with vs without 130 mM KCl (Fig 8, Table 2))	change of Vmax after adding 130 mM KCl (GST-HsPRMT7 [2]; with vs without 130 mM KCl (Fig 8, Table 2), in words)	change of GST-HsPRMT7 activity on addition of salt (human PRMT7)	Km (PRMT9)
Ac-KKDGKKRKRSRKESY-NH2 [Hs H2B (23–37), synthetic peptide of amino acids 23–37 of human histone H2B, PRMT7 substrate used as positive control, reference compound]	approximately 6,000 cpm	about 4,000 cpm	approximately 8,000 cpm	highest	highest PRMT7 methylation activity	1604 cpm	1523 ± 86.54 cpm	16.8 µM	17 µM	0.6 µM	17053	0.558 µM	30 fold	relatively unchanged	decreases by half	–
SF3B2: splicing factor SF3B2, methylated by PRMT9 at Arg508 (protein, UniProt Q13435 1-895, looked up) Splicing factor 3B subunit 2: MATEHPEPPKAELQLPPPPPPGHYGAWAAQELQAKLAEIGAPIQGNREELVERLQSYTRQTGIVLNRPVLRGEDGDKAAPPPMSAQLPGIPMPPPPLGLPPLQPPPPPPPPPPGLGLGFPMAHPPNLGPPPPLRVGEPVALSEEERLKLAQQQAALLMQQEERAKQQGDHSLKEHELLEQQKRAAVLLEQERQQEIAKMGTPVPRPPQDMGQIGVRTPLGPRVAAPVGPVGPTPTVLPMGAPVPRPRGPPPPPGDENREMDDPSVGPKIPQALEKILQLKESRQEEMNSQQEEEEMETDARSSLGQSASETEEDTVSVSKKEKNRKRRNRKKKKKPQRVRGVSSESSGDREKDSTRSRGSDSPAADVEIEYVTEEPEIYEPNFIFFKRIFEAFKLTDDVKKEKEKEPEKLDKLENSAAPKKKGFEEEHKDSDDDSSDDEQEKKPEAPKLSKKKLRRMNRFTVAELKQLVARPDVVEMHDVTAQDPKLLVHLKATRNSVPVPRHWCFKRKYLQGKRGIEKPPFELPDFIKRTGIQEMREALQEKEEQKTMKSKMREKVRPKMGKIDIDYQKLHDAFFKWQTKPKLTIHGDLYYEGKEFETRLKEKKPGDLSDELRISLGMPVGPNAHKVPPPWLIAMQRYGPPPSYPNLKIPGLNSPIPESCSFGYHAGGWGKPPVDETGKPLYGDVFGTNAAEFQTKTEEEEIDRTPWGELEPSDEESSEEEEEEESDEDKPDETGFITPADSGLITPGGFSSVPAGMETPELIELRKKKIEEAMDGSETPQLFTVLPEKRTATVGGAMMGSTHIYDMSTVMSRKGPAPELQGVEVALAPEELELDPMAMTQKYEEHVREQQAQVEKEDFSDMVAEHAAKQKQKKRKAQPQDSRGGSKKYKEFKF	–	–	–	–	–	–	–	–	–	–	–	–	–	–	–	0.08 µM
